Measurements taken from patent US12188050B2, “Kidney organoids and methods of manufacturing” (MURDOCH CHILDRENS RESEARCH INSTITUTE, priority 2017, dated 2025).
Entries after “also recorded” stand apart in the source; their conditions may differ.

How the values were obtained:
Assay type in all cases: cell-based, human
[1] = tested on: kidney micro-organoids at day 7+18; assay: Drug toxicity testing in micro kidney organoids (TUNEL staining, RNA analysis); details: 0, 2.5 and 5 μg/ml for 24 hours
Method: FIG. 8. Kidney micro-organoids provides a platform for drug toxicity screening.
To evaluate the suitability of using the suspension culture method described herein to test for drug toxicity of kidneys in vitro, drug toxicity studies were conducted. Organoids produced by the method at day 7+18 were collected and randomized into treatment groups in a 24 well low attachment plates in 250 μl of media. Organoids were stimulated with different concentrations of cytotoxic drug Adriamycin (0, 2.5 and 5 μg/ml) for 24 hours. After stimulation, media was removed and organoids were fixed with 2% PFA for immunofluorescence staining analysis for apoptosis by using TUNEL staining and some organoids were lysed for RNA analysis (FIG. 8A-8D).

[2] = tested on: intermediate mesoderm (IM) cells differentiated from hPSCs or hES; assay: qPCR gene expression profiling of intermediate mesoderm at D7+0, FGF9 +/- 1 μM CHIR99021; details: low concentration CHIR (1 μM) days 5 to 7 with FGF9 and heparin; qPCR at D7+0
Source text: FIG. 1. Generation of kidney micro-organoids in suspension culture. (A) Outline of the kidney micro-organoid differentiation protocol with images from a differentiation performed using CRL1502.C32 cells. (B) Bright field images showing uniform kidney micro-organoids on Day 7+18 (scale […]). (C, D1 and D2) Immunofluorescence and confocal images of micro-organoids showing formation of nephron segments independent of micro-organoid size and shape, including development of vascular structures (scale […]). (E) Bar graphs showing average fold change for intermediate mesoderm gene expression profiling by qPCR on Day 7+0 for FGF9+/−1 μM CHIR99021. The data represented as Mean, (F) Immunofluorescence for PAX2 for FGF9+/−1 μM CHIR99021 treatment (scale 50 μm) (D7+11). (G) Immunofluorescence and confocal images of nephron compartments within kidney micro-organoids; podocytes (NPHS1+ and MAFB+), proximal tubules (LTL+, CUBN+, LRP2+ and HNF4A+), distal tubules (ECAD), collecting duct (ECAD+ GATA3+) and endothelial cells (SOX17+ and PECAM1+) (scale 50 μm).
hPSCs or hES were differentiated into intermediate mesoderm by exposing cells to high concentration of CHIR (7 μM) for the first 4 days in APEL™ 2 or TeSR™-E6 media (Stem cell technologies) media with 3.5% protein free hybridoma media (PFHM) (Thermo Fischer), APEL™ (Stem cell technologies) or E6 media (Stem cell technologies). […]

[3] = tested on: kidney organoids from monolayers of hPSC; assay: Effect of duration of initial 7 μM CHIR99021 on kidney organoid patterning (confocal microscopy); details: then low CHIR and FGF9+heparin to Day 7
Method: FIG. 2. […] (A) Confocal image of micro-kidney organoid tubules on Day 7+18 showing FITC albumin uptake (scale 5 μm). (B) Confocal images of micro-kidney organoids generated using 4 different cell lines, including hES (H9 GAP-Trap Luc2, hES3 SOX17mCherry) and iPS (CRL1502.C32 and CRL1502.3) on Day 7+18 with antibodies labelling different nephron segments (scale 50 μm). (C, D and E) hES3 SOX17mCherry derived micro-organoids generated after exposure to different days of initial 7 μM CHIR99021 for 3, 4, 5 and 6 days treatment showing bright field (C, scale 100 μm) and immunofluorescence confocal images showing SOX17+ vasculature (D) and MEIS1/2/3+ stroma (E) (scale 100 μm).
To optimise differentiation within the kidney organoid protocol, monolayers of hPSC were stimulated using a fixed concentration of CHIR99021 (7 μM) for varying durations (3, 4, 5 and 6 days) before continued culture to Day 7 in the presence of low CHIR and FGF9+heparin (FIGS. 2C, 2D and 2E). After 18 days, resulting kidney organoids were evaluated for kidney structure using confocal microscopy (FIGS. 2C, 2D and 2E). […] 4 days of initial 7 μM CHIR99021 induction was confirmed as optimal and used in further studies.

[4] = tested on: C32 derived swirler kidney organoids; assay: Glomerular podocyte maturation in swirler organoids with atRA (immunofluorescence, qPCR)
Source text: FIG. 7. All Trans-Retinoic Acid helps in the improvement of glomerular maturation in kidney micro-organoids. Immunofluorescence analysis of C32 swirler organoids generated by swirler suspension culture. (A) Organoids generated without supplementation at atRA. […] (C) qPCR analysis of organoids generated with and without atRA at different time points (D7+11 and D7+18).
To determine whether addition of all trans retinoic acid (atRA) would facilitate glomerular maturation of the organoids produced by the swirler culture method described in Examples 1-3, atRA was supplemented in the media after D7+0. All trans retinoic acid (2.5 μM) was added from D7+5 to D7+10 on C32 derived swirler organoids (FIG. 5).

COc1cccc2c1C(=O)c1c(O)c3c(c(O)c1C2=O)C[C@@](O)(C(=O)CO)C[C@@H]3O[C@H]1C[C@H](N)[C@H](O)[C@H](C)O1 [Adriamycin]
toxicity by expression of TUNEL apoptotic marker [1]: induces dose dependent toxicity
expression of kidney specific genes in micro-organoids ([1]; RNA analysis): reduces the expression of kidney specific genes

Cc1c[nH]c(-c2cnc(NCCNc3ccc(C#N)cn3)nc2-c2ccc(Cl)cc2Cl)n1 [CHIR99021]
expression of PAX2, LHX1 and OSR1 (cap mesenchyme) compared to short CHIR exposure groups [2]: more than 2 folds
increase in expression of Wnt11 and GATA3 (ureteric epithelium) compared to short CHIR exposure groups [2]: more than 2 fold
kidney organoid structure after 18 days ([3]; 7 μM CHIR99021 for 4 or 5 days): generated kidney organoids containing patterning nephrons
kidney organoid structure after 18 days ([3]; 7 μM CHIR99021 for 3 days): failed to generate a kidney morphology
kidney organoid structure after 18 days ([3]; 7 μM CHIR99021 for 6 days): generating larger kidney organoids with greater NPHS1 staining, contained an expanded MEIS1^+ stromal population apparently compromising epithelial structure

CC1=C(/C=C/C(C)=C/C=C/C(C)=C/C(=O)O)C(C)(C)CCC1 [atRA, all trans retinoic acid]
podocyte phenotype by immunofluorescence compared to control group ([4]; 2.5 μM atRA from D7+5 to D7+10, analysis after D7+18): improved the podocyte phenotype; also recorded: improved glomerular podocyte maturation
mRNA expression of glomerular and proximal tubular markers (qPCR) compared to control ([4]; 2.5 μM atRA, D7+11 and D7+18 samples): increased expression of glomerular markers such as NPHS1 and proximal tubular markers like CUBN
